From patent US12534762B2, “Treating atopic dermatitis by targeting the WNT pathway” (Children's Medical Center Corporation, priority 2018, dated 2026)
“Also recorded” adds a separate entry of the source. Peptide text beside a SMILES is read from it. * marks the point of attachment. Cbz = O=C(OCc1ccccc1)*

Legend:
FZD5 = test: Immunoblot of FZD5 (immature and mature forms) with lysosome/proteasome inhibitors; type: cell-based, human; conditions: HEK293T cells; for TMEM79-induced degradation of immature FZD5: TMEM79 overexpressed; for levels of immature and mature forms of FZD5: absence or presence of TMEM79
Procedure: Cell culture, immunofluorescence, RNA interference and dual luciferase assay. HEK293T cells (ATCC #CRL-11268) and its derivatives were maintained in DMEM supplemented with 10% FBS, penicillin, and streptomycin. ZRKO (ZNRF3 and RNF43 double knockout) cell line was a gift from F. Cong. The FZD null cell line (Fz1-10 knockout) was a gift from B. Vanhollebeke. For immunofluorescence, HEK293T cells were grown on poly-L-lysine-coated glass coverslips. Cells were transfected with Snap-FZD5 and after 24 hours washed with PBS and fixed with 4% paraformaldehyde for 10 min at room temperature. The cells were labeled with 1 μM SNAP-Surface® 488 (BioLabs) for 15 min at room temperature. To visualize endogenous TMEM79, PDI, TGN46 and EEA1, cells were permeabilized with 0.2% Triton X-100 in PBS for 5 min, blocked with 10% normal goat serum and then incubated with respective antibodies for 1 hour at room temperature followed by incubation with secondary antibodies (Alexa Fluor 594 goat anti-rabbit immunoglobulin and Alexa Fluor 488 goat anti-mouse immunoglobulin, Invitrogen). Cells were mounted in Prolong Diamond Antifade Mountant with DAPI (Thermofisher Scientific) and imaged using a Zeiss LSM700 confocal microscope. siRNA transfection was done using Lipofectamine RNAiMAX (Thermofisher Scientific, #13778075). Duplex siRNAs targeting TMEM79 and ZNRF3 were purchased from Sigma. The sequences are as follows: TMEM79-1, 5-[…]dTdT-3 (SEQ ID NO: 19), TMEM79-2, 5-CCAUGAGUUCCCGCCUGAUdTdT-3 (SEQ ID NO: 20). ZNRF3, 5-[…]dTdT-3 (SEQ ID NO: 21). For Top-Flash reporter assay, cells were transduced sequentially with Supertopflash (7TFP, Addgene) and EF1α-Renilla lentiviruses. Cells were plated in 24 well plates and transfected the following day in triplicate using FuGENE HD (Promega, #E2312). Dual luciferase reporter assays were performed using Dual-Luciferase® Reporter Assay System (Promega, #E1960) according to manufacturer's instruction. Representative results are shown from one of three (or more) independent experiments. Immunoblotting, cell surface protein labeling and immunoprecipitation. Total cell lysates in NP40 lysis buffer (50 mM Tris, pH 7.5, 150 mM NaCl, 1 mM EDTA, 1% NP40, 10% glycerol, 10 mM NaF, and protease inhibitor cocktail, pH=7.4) were prepared by gentle rotating at 4° C., followed by centrifugation at top speed for 10 min at 4° C. Samples were run on a SDS-PAGE and transferred to Immobilon-P membrane. To isolate the cytoplasmic fraction of β-catenin, cells were incubated with 0.015% digitonin (in PBS supplemented protease inhibitor cocktail) by gentle rotating at 4° C. for 10 min. Indirect immunochemistry using a secondary antibody conjugated with horseradish peroxidase was visualized using ECL reagents on LAS-4000 imager (FujiFilm). Cell surface proteins were biotinylated using EZ-LinkTMSulfo-NHS—SS-Biotin (Thermo Fisher Scientific) according to manufacturer's protocol. Biotinylated proteins were enriched by Pierce® Streptavidin agarose resins. For immunoprecipitation, transfected HEK293T cells were lysed in NP40 lysis buffer. Cell lysates were incubated with antibody conjugated Agarose beads (Pierce™ Anti-c-Myc Agarose, #20168; Pierce™ Anti-HA Agarose, #26181; Anti-Flag M2 affinity gel, Sigma, A2220; Anti-V5 Agarose Affinity Gel, Sigma, A7345) at 4° C. over night. Beads were washed with lysis buffer 5 times and proteins were eluted in 2× sample buffer.

Wnt/β-catenin signaling = test: Top-Flash dual luciferase reporter assay; type: cell-based, human; conditions: HEK293T cells
Procedure: (§1) Cell culture, immunofluorescence, RNA interference and dual luciferase assay. HEK293T cells (ATCC #CRL-11268) and its derivatives were maintained in DMEM supplemented with 10% FBS, penicillin, and streptomycin. ZRKO (ZNRF3 and RNF43 double knockout) cell line was a gift from F. Cong. The FZD null cell line (Fz1-10 knockout) was a gift from B. Vanhollebeke. For immunofluorescence, HEK293T cells were grown on poly-L-lysine-coated glass coverslips. Cells were transfected with Snap-FZD5 and after 24 hours washed with PBS and fixed with 4% paraformaldehyde for 10 min at room temperature. The cells were labeled with 1 μM SNAP-Surface® 488 (BioLabs) for 15 min at room temperature. To visualize endogenous TMEM79, PDI, TGN46 and EEA1, cells were permeabilized with 0.2% Triton X-100 in PBS for 5 min, blocked with 10% normal goat serum and then incubated with respective antibodies for 1 hour at room temperature followed by incubation with secondary antibodies (Alexa Fluor 594 goat anti-rabbit immunoglobulin and Alexa Fluor 488 goat anti-mouse immunoglobulin, Invitrogen). Cells were mounted in Prolong Diamond Antifade Mountant with DAPI (Thermofisher Scientific) and imaged using a Zeiss LSM700 confocal microscope. siRNA transfection was done using Lipofectamine RNAiMAX (Thermofisher Scientific, #13778075). Duplex siRNAs targeting TMEM79 and ZNRF3 were purchased from Sigma. […]

β-catenin = test: Immunoblot of cytosolic β-catenin after siRNA depletion of TMEM79 or ZNRF3; type: cell-based, human; conditions: HEK293T cells
Procedure: as §1

[1] = test system: phosphorylated LRP6 and phosphorylated DVL; test: Immunoblot of phosphorylated LRP6 and DVL2 in T79KO and ZRKO cells; type: cell-based, human
Procedure: as §1

ma/ma mice = test: Topical LGK974 cream on Tmem79 ma/ma mice, AD phenotypes; type: in vivo, mouse; conditions: topical cream twice daily, dose to be determined empirically
Description: PORCUPINE (PORCN) is an ER acyl-transferase specifically required for biogenesis and secretion of all WNT proteins. A diverse group of small molecules, referred to as IWP2, LGK974, and C59, each binds to and inhibits PORCN, thereby blocking WNT production. LGK974 and C59 are in phase I clinical trials for cancers that rely on autocrine or local WNT production (Proffitt, K. D., et al., Cancer Res, 2013, 73 (2): p. 502-7; Jiang, X., et al., Proc Natl Acad Sci USA, 2013. 110 (31): p. 12649-54). […] 111 (6): p. 2325-30; Apelian, H. M. C., NJ), Coffin-beach, David (Kendall Park, NJ), Huq, Abu S. (Plainsboro, NJ), Pharmaceutical composition of florfenicol, in U.S. Pat. No. 5,082,862, S. Corporation, January 1992; Malook, S. U. N., GB5), Boon, Peter F. G. (Horsham, GB2), Morgan, James P. (Navan, IE), Method of reducing the swelling or pain associated with antibiotics compositions, in U.S. Pat. No. 4,772,460, L. Bimeda Research and Development, September 1988.). […]
ma ma mice in C57BL/6 have been used as a reliable model for human AD and will be housed under the SPF (specific pathogen-free) conditions at BCH, and analyzed at 2, 4, and 8 weeks for skin phenotypes as described (Sasaki, T., et al., J Allergy Clin Immunol, 132 (5): p. 1111-1120 e4, 2013; Saunders, S. P., et al., J Allergy Clin Immunol, 132 (5): p. 1121-9, 2013). […]

CO/C1=C\C(C)=C\[C@@H](C)[C@@H](O)[C@@H](C)C/C(C)=C/C=C/[C@H](OC)[C@@H]([C@@H](C)[C@@H](O)[C@H](C)[C@@]2(O)C[C@@H](O)[C@H](C)[C@@H](C(C)C)O2)OC1=O [Bafilomycin A1]
TMEM79-induced lysosomal degradation of FZD5 (FZD5): prevented | TMEM79-induced degradation of immature FZD5 (FZD5): inhibited | TMEM79-induced degradation of immature FZD5 (FZD5; listed as Baf A1): blocked | levels of immature and mature forms of FZD5 (FZD5): elevated levels | levels of immature and mature forms of FZD5 (FZD5; listed as BAF A1): increased

Cc1ccc2nc(NC(=O)CSc3nc4c(c(=O)n3-c3ccccc3)SCC4)sc2c1 [IWP-2]
TOP-Flash reporter induction by USP8C (Wnt/β-catenin signaling; USP8C transfected): abolished; also recorded: inhibited | elevated levels of TOP-Flash caused by depletion of TMEM79 or ZNRF3 (Wnt/β-catenin signaling; siRNA depletion): abolished; also recorded: suppressed | elevated levels of β-catenin protein caused by depletion of TMEM79 or ZNRF3 (β-catenin): prevented; also recorded: suppressed | elevated levels of phosphorylated LRP6 and phosphorylated DVL [1]: inhibited; also recorded: suppressed

Cc1cc(-c2ncc(CC(=O)Nc3ccc(-c4cnccn4)cn3)cc2C)ccn1 [LG974]
AD phenotypes of ma mice (ma/ma mice): ameliorated

CC(C)C[C@@H](C=O)NC(=O)[C@H](CC(C)C)NC(=O)[C@H](CC(C)C)NC(=O)OCc1ccccc1 [MG132] (Cbz-Leu-Leu-Leu-aldehyde)
levels of immature and mature forms of FZD5 (FZD5): did not affect
